From US7122523B2, “Methods for inhibiting tumor cell proliferation” (University of Southern California, priority 2001, dated 2006)

Tests used:
Type in all cases: cell-based
[1] = tested on: Endometrial adenocarcinoma; assay: Human tumor cell clonigenic assay (tritiated thymidine incorporation); conditions: for Effect of AII(1–7) on proliferation: AII(1–7) 0.1 ng/ml–10 μg/ml; for IC50 (ng/ml) of AII(1–7): proliferation
Description: (§1) Primary and metastatic tumors obtained from the Department of Obstetrics and Gynecology Pathology Section and the Surgical Pathology Division of Los Angeles County/University of Southern California were minced into pieces less than 2 mm in diameter in the presence of RPMI-1640 (Gibco, Grand Island, NTY) containing 15% heat-inactivated fetal calf serum. Each gram of tumor tissue was treated with 10–20 mL of enzyme medium, consisting of Hanks' balanced salt solution with 0.03% DNAse (500 Kunitz units/mL; Sigma Chemical Co., St. Louis, Mo.) and 0.14% collagenase type I (Sigma). Tumor fragments were stirred for 90 minutes at 37° C. in the presence of 5% CO2. After enzymatic digestion, the free cells were decanted through 40-gauge mesh strainers and centrifuged at 200×g for 10 minutes. The supernatant was removed and viable cells were resuspended in RPMI 1640. The cell number was determined using a hematocytometer and 0.04% trypan blue dye. The cells were then centrifuged and the pellet resuspended in RPMI 1640 at 5×10^5 cells/mL.
(§2) Human cancer cells were obtained from operative specimens provided by the Division of Gynecologic Oncology, Department of Obstetrics and Gynecology, or the Department of Surgical Pathology of Los Angeles County/University of Southern California School of Medicine. Tumor cells were maintained in vitro in RPMI 1640 medium supplemented with 15% heat-inactivated fetal calf serum, 100 μg/mL streptomycin, fungizone 25 μg/mL, and 100 μ/mL penicillin.
(§3) Cells were cultured on an underlayer of 0.5% agarose (Bethesda Research Labs, Bethesda, Md.) prepared from a 3% stock of agarose with added penicillin (100 units/mL), streptomycin (100 μg/mL), and fungizone (1.25 μg/mL) (GIBCO) as per a modification of an established procedure. The cloning efficiency of this assay varied depending upon the source of the tissue. One milliliter of this 0.5% agarose mixture was added to each 16×16-mm well of a 24-well plate and the plates were refrigerated for 10 minutes at 4° C. Cells were suspended in 0.6% agarose in RPMI-1640 supplemented with antibiotics and 15% fetal calf serum. One aliquot (0.5 mL) of cell suspension was added to each underlaver at a final concentration of 5×10^4 cells/well, and the plates were refrigerated 10 minutes at 4° C.
(§4) After a 72-hour incubation at 37° C., 5 μCi of tritiated thymidine (specific activity 18.2 Ci/mmol; New England Nuclear, Boston, Mass.) was layered over each well, and the plates were returned to the incubator for an additional 24 hours, incorporation of thymidine was terminated by transferring the agarose layers to 10-mL glass centrifuge tubes (Kimble, Division of Owens, Ill.) and boiling the tubes for 15 minutes in a water bath. The volume was brought to 8 mL, the tubes were centrifuged, and the pellets were washed with phosphate-buffered saline and then dissolved in 3 mL of 0.85 N KOH for 1 hour at 80° C. The tubes were cooled on ice and the hydrolysates were precipitated by adding 30 μL of 1% human serum albumin (Sigma) and 2.4 mL of ice-cold trichloroacetic acid. After overnight storage at 4° C., precipitates were collected by centrifugation. Pellets were washed with 5% trichloroacetic acid, dissolved in 0.3 mL of 0.075 N KOH, and transferred to scintillation vials to which 5 mL of Liquiscint (National Diagnostics, Somerville, N.J.) were added. Radioactivity per vial was measured in a Nuclear-Chicago liquid scintillation counter.

[2] = tested on: Serous tumor of low malignant potential; assay: as above; conditions: Sample 6, Serous tumor of low malignant potential; AII(1–7) 0.1 ng/ml–10 μg/ml
Description: as §1, §2, §3, §4

[3] = tested on: Ovarian Cancer-High Grade Clear Cell Carcinoma; assay: as above; conditions: Sample 16, Ovarian Cancer-High Grade Clear Cell Carcinoma; AII(1–7) 0.1 ng/ml–10 μg/ml
Description: as §1, §2, §3, §4

[4] = tested on: Metastatic, recurrent moderately to poorly differentiated colonic adenocarcinoma; assay: as above; conditions: Sample 34, Metastatic, AII(1–7) 0.1 ng/ml–10 μg/ml
Description: as §1, §2, §3, §4

Leiomyosarcoma = assay: as above; conditions: Sample 1, Leiomyosarcoma; AII(1–7) 0.1 ng/ml–10 μg/ml
Description: as §1, §2, §3, §4

[5] = tested on: Metastatic uterine carcinosarcoma to the ovary; assay: as above; conditions: Sample 5, Metastatic uterine carcinosarcoma to the ovary; AII(1–7) 0.1 ng/ml–10 μg/ml
Description: as §1, §2, §3, §4

[6] = tested on: Cystic poorly differentiated endometroid carcinoma of ovary; assay: as above; conditions: Sample 30, Cystic poorly differentiated endometroid carcinoma of ovary; AII(1–7) 0.1 ng/ml–10 μg/ml
Description: as §1, §2, §3, §4

[7] = tested on: Colonic adenocarcinoma, Gr 3–4, moderately to poorly differentiated; assay: as above; conditions: Sample 36, Colonic adenocarcinoma
Description: as §1, §2, §3, §4

[8] = tested on: Squamous Cell Carcinoma of the Cervix, gr 3; assay: as above; conditions: Sample 12, Squamous Cell Carcinoma of the Cervix, AII(1–7) 0.1 ng/ml–10 μg/ml
Description: as §1, §2, §3, §4

[9] = tested on: Ovarian papillary serous carcinoma; assay: as above; conditions: Sample 2, Ovarian papillary serous carcinoma
Description: as §1, §2, §3, §4

[10] = tested on: Ovarian Serous papillary carcinoma; assay: as above; conditions: Sample 31, Ovarian Serous papillary carcinoma
Description: as §1, §2, §3, §4

[11] = tested on: Invasive, moderately differentiated adenocarcinoma of colon; assay: as above; conditions: Sample 29, Invasive, AII(1–7) 0.1 ng/ml–10 μg/ml
Description: as §1, §2, §3, §4

[12] = tested on: Metastatic colon adenocarcinoma; assay: as above; conditions: Sample 26, Metastatic colon adenocarcinoma; AII(1–7) 0.1 ng/ml–10 μg/ml
Description: as §1, §2, §3, §4

Ovarian adenocarcinoma = assay: as above; conditions: for Effect of AII(1–7) on proliferation: AII(1–7) 0.1 ng/ml–10 μg/ml; for IC50 (ng/ml) of AII(1–7): proliferation
Description: as §1, §2, §3, §4

[13] = tested on: Recurrent moderately differentiated colonic adenocarcinoma; assay: as above; conditions: Sample 19, Recurrent moderately differentiated colonic adenocarcinoma; AII(1–7) 0.1 ng/ml–10 μg/ml
Description: as §1, §2, §3, §4

Uterine Carcinosarcoma = assay: as above; conditions: Sample 17, Uterine Carcinosarcoma; AII(1–7) 0.1 ng/ml–10 μg/ml
Description: as §1, §2, §3, §4

Colon adenocarcinoma = assay: as above; conditions: Sample 25, Colon adenocarcinoma
Description: as §1, §2, §3, §4

Breast adenocarcinoma = assay: as above; conditions: for Effect of AII(1–7) on proliferation: AII(1–7) 0.1 ng/ml–10 μg/ml; for IC50 (ng/ml) of AII(1–7): proliferation
Description: as §1, §2, §3, §4

[14] = tested on: Ovarian carcinoma-clear cell; assay: as above; conditions: Sample 3, Ovarian carcinoma-clear cell; AII(1–7) 0.1 ng/ml–10 μg/ml
Description: as §1, §2, §3, §4

[15] = tested on: Cervical squamous cell carcinoma; assay: as above
Description: as §1, §2, §3, §4

[16] = tested on: Metastatic Ovarian Papillary Carcinoma to Omentum; assay: as above; conditions: Sample 13, Metastatic Ovarian Papillary Carcinoma to Omentum; AII(1–7) 0.1 ng/ml–10 μg/ml
Description: as §1, §2, §3, §4

[17] = tested on: Human Primary Tumor Cells; assay: Clonigenic assay, Chi Square analysis of tumor-type specificity over all samples
Description: as §1, §2, §3, §4

[18] = Sample 4, Endometrial adenocarcinoma
[19] = Sample 8, Endometrial adenocarcinoma
[20] = Sample 11, Endometrial adenocarcinoma
[21] = Sample 18, Endometrial adenocarcinoma
[22] = Sample 22, Endometrial adenocarcinoma
[23] = Sample 23, Endometrial adenocarcinoma
[24] = Sample 27, Ovarian adenocarcinoma
[25] = Sample 32, Ovarian adenocarcinoma
[26] = Sample 7, Breast adenocarcinoma
[27] = Sample 10, Breast adenocarcinoma
[28] = Sample 20, Breast adenocarcinoma
[29] = Sample 21, Breast adenocarcinoma
[30] = Sample 24, Breast adenocarcinoma
[31] = Sample 28, Breast adenocarcinoma

## CC[C@H](C)[C@H](NC(=O)[C@H](Cc1ccc(O)cc1)NC(=O)[C@@H](NC(=O)[C@H](CCCNC(=N)N)NC(=O)[C@@H](N)CC(=O)O)C(C)C)C(=O)N[C@@H](Cc1c[nH]cn1)C(=O)N1CCC[C@H]1C(=O)O [AII(1–7), Asp-Arg-Val-Tyr-Ile-His-Pro]
[1]; [18]
  Effect of AII(1–7) on proliferation: Decreased
  IC50 (ng/ml) of AII(1–7): 1.0 ng/mL
[1]; [19]
  Effect of AII(1–7) on proliferation: Decreased
  IC50 (ng/ml) of AII(1–7): 1.0 ng/mL
[1]; Sample 9, Endometrial adenocarcinoma
  Effect of AII(1–7) on proliferation: Decreased
[1]; [20]
  Effect of AII(1–7) on proliferation: No Effect
  IC50 (ng/ml) of AII(1–7): No Effect
[1]; [21]
  Effect of AII(1–7) on proliferation: No Effect
  IC50 (ng/ml) of AII(1–7): No Effect
[1]; [22]
  Effect of AII(1–7) on proliferation: Decreased
  IC50 (ng/ml) of AII(1–7): 0.1 ng/mL
[1]; [23]
  Effect of AII(1–7) on proliferation: Decreased
  IC50 (ng/ml) of AII(1–7): 4.0 ng/mL
[2]
  Effect of AII(1–7) on proliferation: No Effect
[3]
  Effect of AII(1–7) on proliferation: No Effect
[4]
  Effect of AII(1–7) on proliferation: No Effect
Leiomyosarcoma
  Effect of AII(1–7) on proliferation: No Effect
[5]
  Effect of AII(1–7) on proliferation: Equivocal
[6]
  Effect of AII(1–7) on proliferation: No Effect
[7]; AII(1–7) 0.1 ng/ml–10 μg/ml
  Effect of AII(1–7) on proliferation: Decreased
[7]; proliferation
  IC50 (ng/ml) of AII(1–7): 2.55 ng/mL
[8]
  Effect of AII(1–7) on proliferation: No Effect
[9]; AII(1–7) 0.1 ng/ml–10 μg/ml
  Effect of AII(1–7) on proliferation: Decreased
[9]; proliferation
  IC50 (ng/ml) of AII(1–7): 3.0 ng/mL
[10]; AII(1–7) 0.1 ng/ml–10 μg/ml
  Effect of AII(1–7) on proliferation: Decreased
[10]; proliferation
  IC50 (ng/ml) of AII(1–7): 2.34 ng/mL
[11]
  Effect of AII(1–7) on proliferation: No Effect
[12]
  Effect of AII(1–7) on proliferation: Variable
Ovarian adenocarcinoma; [24]
  Effect of AII(1–7) on proliferation: Decreased
  IC50 (ng/ml) of AII(1–7): 3.6 ng/mL
Ovarian adenocarcinoma; [25]
  Effect of AII(1–7) on proliferation: Decreased
  IC50 (ng/ml) of AII(1–7): 3.4 ng/mL
Ovarian adenocarcinoma; Sample 33, Ovarian adenocarcinoma
  Effect of AII(1–7) on proliferation: No Effect
[13]
  Effect of AII(1–7) on proliferation: No Effect
Uterine Carcinosarcoma
  Effect of AII(1–7) on proliferation: No Effect
Colon adenocarcinoma; AII(1–7) 0.1 ng/ml–10 μg/ml
  Effect of AII(1–7) on proliferation: Decreased
Colon adenocarcinoma; proliferation
  IC50 (ng/ml) of AII(1–7): 4.75 ng/mL
Breast adenocarcinoma; [26]
  Effect of AII(1–7) on proliferation: Decreased
  IC50 (ng/ml) of AII(1–7): 2.73 ng/mL
Breast adenocarcinoma; [27]
  Effect of AII(1–7) on proliferation: No Effect
  IC50 (ng/ml) of AII(1–7): No Effect
Breast adenocarcinoma; [28]
  Effect of AII(1–7) on proliferation: Decreased
  IC50 (ng/ml) of AII(1–7): 0.3 ng/mL
Breast adenocarcinoma; [29]
  Effect of AII(1–7) on proliferation: No Effect
  IC50 (ng/ml) of AII(1–7): No Effect
Breast adenocarcinoma; [30]
  Effect of AII(1–7) on proliferation: Decreased
  IC50 (ng/ml) of AII(1–7): 4.25 ng/mL
Breast adenocarcinoma; [31]
  Effect of AII(1–7) on proliferation: Decreased
  IC50 (ng/ml) of AII(1–7): 2.97 ng/mL
[14]
  Effect of AII(1–7) on proliferation: No Effect
[15]; Sample 37, Cervical squamous cell adenocarcinoma, proliferation
  IC50 (ng/ml) of AII(1–7): 2.73 ng/mL
[15]; Sample 37, Cervical squamous cell carcinoma, AII(1–7) 0.1 ng/ml–10 μg/ml
  Effect of AII(1–7) on proliferation: Decreased
[16]
  Effect of AII(1–7) on proliferation: No Effect
[17]; All adenocarcinoma: 14 decreased, 8 not affected
  tumors affected (proliferation decreased): 63.6%
[17]; Breast infiltrating ductal adenocarcinoma: 4 decreased, 2 not affected
  tumors affected (proliferation decreased): 66.7%
[17]; Uterine adenocarcinoma and breast infiltrating ductal adenocarcinoma: 9 decreased, 4 not affected
  tumors affected (proliferation decreased): 69.2%
[17]; Uterine adenocarcinoma: 5 decreased, 2 not affected
  tumors affected (proliferation decreased): 71.4%
[17]; Uterine, ovarian and breast adenocarcinomas: 11 decreased, 5 not affected
  tumors with decreased proliferation: 68.8%
[17]; remaining tumors not adenocarcinoma: 2 decreased, 10 not affected
  tumors affected (proliferation decreased): 16.7%
[17]; remaining tumors not of breast infiltrating ductal adenocarcinoma origin: 12 decreased, 16 not affected
  tumors affected (proliferation decreased): 42%
[17]; remaining tumors not of uterine adenocarcinoma origin: 11 decreased, 16 not affected
  tumors affected (proliferation decreased): 40.7%
[17]; remaining tumors not of uterine or breast adenocarcinoma origin: 7 decreased, 14 not affected
  tumors affected (proliferation decreased): 33.3%
[17]; remaining tumors not of uterine, ovarian or breast adenocarcinoma origin: 5 decreased, 13 not affected
  tumors with decreased proliferation: 27.8%
